Results published in patent publication EP0831826B1, “PHARMACEUTICAL COMPOSITION COMPRISING A PROTEINASE INHIBITOR AND A MONOGLYCERIDE” (F. HOFFMANN-LA ROCHE AG, priority 1995, dated 1996).
In brackets after ≈: the same amount, converted by molar mass. Structures can show the parent of a compound that is named as a salt. Where two headings read alike, the source gives them in different places.

Key:
physchem = settings: hcl, pH 1.1, solubility

Question: With `CC(C)(C)NC(=O)[C@@H]1C[C@@H]2CCCC[C@@H]2CN1C[C@@H](O)[C@H](Cc1ccccc1)NC(=O)[C@H](CC(N)=O)NC(=O)c1ccc2ccccc2n1` [Compound A, N-tert.-butyl-decahydro-2-[2(R)-hydroxy-4-phenyl-3(S)-[[N-(2-quinolylcarbonyl)-L-asparaginyl]amino]butyl]-(4aS,8aS)-isoquinoline-3(S)-carboxamide] as the compound, how does the solubility (hcl, pH 1.1) read?
Answer: Its solubility is 0.05 mg/mL (≈ 74.5 µM).

Question: And the solubility (phosphate buffer, pH 5.4)?
Answer: The solubility was less than 0.01 mg/mL.

Question: And the solubility (water)?
Answer: Its solubility is 0.03 mg/mL (≈ 44.7 µM).

Question: Which solubility (phosphate buffer, pH 5.4) does the source give for `CC(C)(C)NC(=O)[C@@H]1C[C@@H]2CCCC[C@@H]2CN1C[C@@H](O)[C@H](Cc1ccccc1)NC(=O)[C@H](CC(N)=O)NC(=O)c1ccc2ccccc2n1` [Compound A-mesylate salt] here?
Answer: Its solubility is 2.32 mg/mL.

Question: What about the solubility (water) of the same compound?
Answer: The solubility was 2.55 mg/mL.

Question: What about the solubility (physchem) of the same compound?
Answer: Its solubility is 0.06 mg/mL.
